Test results reported in patent US20110224210A1, “NOVEL BIS-AMIDES AS ANTI-MALARIAL AGENTS” (priority 2008, published 2011).

System: P. falciparum K1 (strain resistant to chloroquine and pyrimethamine), erythrocytic stages
Assay: Plasmodium falciparum in vitro assay, [3H] hypoxanthine incorporation
Type: cell-based
Conditions: Plasmodium falciparum, K1, P. falciparum strain K1; [3H] hypoxanthine incorporation; read-out: IC50 (nM) on K1
Procedure, shortened: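 K1 strain parasites grown in human red cells, 2.5% haematocrit, 0.3% parasitaemia, 37 °C, 4% CO2/3% O2; compounds in seven serial doubling dilutions.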

SMILES | IC50
COCCN(C)C(=O)[C@H](Cc1ccccc1)N(Cc1ccc(N2CCN(C(C)=O)CC2)cc1)C(=O)C=Cc1csc(C)n1 [Example 108, (S)-N-[4-(4-Acetyl-piperazin-1-yl)-benzyl]-N-{1-[(2-methoxy-ethyl)-methyl-carbamoyl]-2-phenyl-ethyl}-3-(2-methyl-thiazol-4-yl)-acrylamide] | 225 nM
COCCN(C)C(=O)[C@H](Cc1ccccc1)N(Cc1ccc(N2CCN(C(C)=O)CC2)cc1)C(=O)C=Cc1nc(C)oc1C [Example 110, (S)-N-[4-(4-Acetyl-piperazin-1-yl)-benzyl]-3-(2,5-dimethyl-oxazol-4-yl)-N-{1-[(2-methoxy-ethyl)-methyl-carbamoyl]-2-phenyl-ethyl}-acrylamide] | 324 nM
COCCN(C)C(=O)[C@H](Cc1ccccc1)N(Cc1ccc(N2CCN(C(C)=O)CC2)cc1)C(=O)C=Cc1ccc(OC)nn1 [Example 111, (S)-N-[4-(4-Acetyl-piperazin-1-yl)-benzyl]-N-{1-[(2-methoxy-ethyl)-methyl-carbamoyl]-2-phenyl-ethyl}-3-(6-methoxy-pyridazin-3-yl)-acrylamide] | 214 nM
COCCN(C)C(=O)[C@H](Cc1ccccc1)N(Cc1ccc(N2CCN(C(C)=O)CC2)cc1)C(=O)C=Cc1ccc(C)nc1 [Example 112, (S)-N-[4-(4-Acetyl-piperazin-1-yl)-benzyl]-N-{1-[(2-methoxy-ethyl)-methyl-carbamoyl]-2-phenyl-ethyl}-3-(6-methyl-pyridin-3-yl)-acrylamide] | 153 nM
COCCN(C)C(=O)[C@H](Cc1ccccc1)N(Cc1ccc(N2CCN(C(C)=O)CC2)cc1)C(=O)C=Cc1cnn(C)c1C [Example 117, (S)-N-[4-(4-Acetyl-piperazin-1-yl)-benzyl]-3-(1,5-dimethyl-1H-pyrazol-4-yl)-N-{1-[(2-methoxy-ethyl)-methyl-carbamoyl]-2-phenyl-ethyl}-acrylamide] | 117 nM
COCCN(C)C(=O)[C@H](Cc1ccccc1)N(Cc1ccc(-c2cncnc2)cc1)C(=O)C=Cc1cnc(C)n1C [Example 120, (S)-3-(2,3-Dimethyl-3H-imidazol-4-yl)-N-{1-[(2-methoxy-ethyl)-methyl-carbamoyl]-2-phenyl-ethyl}-N-(4-pyrimidin-5-yl-benzyl)-acrylamide] | 285 nM
COCCN(C)C(=O)[C@H](Cc1ccccc1)N(Cc1ccc(-c2cncnc2)cc1)C(=O)C=Cc1csc(C)n1 [Example 122, (S)-N-{1-[(2-Methoxy-ethyl)-methyl-carbamoyl]-2-phenyl-ethyl}-3-(2-methyl-thiazol-4-yl)-N-(4-pyrimidin-5-yl-benzyl)-acrylamide] | 156 nM
COCCN(C)C(=O)[C@H](Cc1ccccc1)N(Cc1ccc(-c2cncnc2)cc1)C(=O)C=Cc1cc(C)on1 [Example 123, (S)-N-{1-[(2-Methoxy-ethyl)-methyl-carbamoyl]-2-phenyl-ethyl}-3-(5-methyl-isoxazol-3-yl)-N-(4-pyrimidin-5-yl-benzyl)-acrylamide] | 296 nM
COCCN(C)C(=O)[C@H](Cc1ccccc1)N(Cc1ccc(-c2cncnc2)cc1)C(=O)C=Cc1csnn1 [Example 125, (S)-N-{1-[(2-Methoxy-ethyl)-methyl-carbamoyl]-2-phenyl-ethyl}-N-(4-pyrimidin-5-yl-benzyl)-3-[1,2,3]thiadiazol-4-yl-acrylamide] | 439 nM
COCCN(C)C(=O)[C@H](Cc1ccccc1)N(Cc1ccc(-c2cncnc2)cc1)C(=O)C=Cc1ccc(OC)nn1 [Example 126, (S)-N-{1-[(2-Methoxy-ethyl)-methyl-carbamoyl]-2-phenyl-ethyl}-3-(6-methoxy-pyridazin-3-yl)-N-(4-pyrimidin-5-yl-benzyl)-acrylamide] | 160 nM

These reach a lower IC50. Values come first.

IC50 | SMILES
70 nM | COCCN(C)C(=O)[C@H](Cc1ccccc1)N(Cc1ccc(N2CCN(C(C)=O)CC2)cc1)C(=O)C=Cc1sc(C)nc1C [Example 107, (S)-N-[4-(4-Acetyl-piperazin-1-yl)-benzyl]-3-(2,4-dimethyl-thiazol-5-yl)-N-{1-[(2-methoxy-ethyl)-methyl-carbamoyl]-2-phenyl-ethyl}-acrylamide]
100 nM | COCCN(C)C(=O)[C@H](Cc1ccccc1)N(Cc1ccc(N2CCN(C(C)=O)CC2)cc1)C(=O)C=Cc1c(C)noc1C [Example 109, (S)-N-[4-(4-Acetyl-piperazin-1-yl)-benzyl]-3-(3,5-dimethyl-isoxazol-4-yl)-N-{1-[(2-methoxy-ethyl)-methyl-carbamoyl]-2-phenyl-ethyl}-acrylamide]
84 nM | COCCN(C)C(=O)[C@H](Cc1ccccc1)N(Cc1ccc(N2CCN(C(C)=O)CC2)cc1)C(=O)C=Cc1ccc(Cl)nc1 [Example 113, (S)-N-[4-(4-Acetyl-piperazin-1-yl)-benzyl]-3-(6-chloro-pyridin-3-yl)-N-{1-[(2-methoxy-ethyl)-methyl-carbamoyl]-2-phenyl-ethyl}-acrylamide]
107 nM | COCCN(C)C(=O)[C@H](Cc1ccccc1)N(Cc1ccc(N2CCN(C(C)=O)CC2)cc1)C(=O)C=Cc1ccc(C)cn1 [Example 114, (S)-N-[4-(4-Acetyl-piperazin-1-yl)-benzyl]-N-{1-[(2-methoxy-ethyl)-methyl-carbamoyl]-2-phenyl-ethyl}-3-(5-methyl-pyridin-2-yl)-acrylamide]
32 nM | COCCN(C)C(=O)[C@H](Cc1ccccc1)N(Cc1ccc(N2CCN(C(C)=O)CC2)cc1)C(=O)C=Cc1ccc(OC)nc1 [Example 115, (S)-N-[4-(4-Acetyl-piperazin-1-yl)-benzyl]-N-{1-[(2-methoxy-ethyl)-methyl-carbamoyl]-2-phenyl-ethyl}-3-(6-methoxy-pyridin-3-yl)-acrylamide]
< 8 nM | COCCN(C)C(=O)[C@H](Cc1ccccc1)N(Cc1ccc(N2CCN(C(C)=O)CC2)cc1)C(=O)C=Cc1ccc(C(F)(F)F)cn1 [Example 116, (S)-N-[4-(4-Acetyl-piperazin-1-yl)-benzyl]-N-{1-[(2-methoxy-ethyl)-methyl-carbamoyl]-2-phenyl-ethyl}-3-(5-trifluoromethyl-pyridin-2-yl)-acrylamide]
104 nM | COCCN(C)C(=O)[C@H](Cc1ccccc1)N(Cc1ccc(N2CCN(C(C)=O)CC2)cc1)C(=O)C=Cc1cnc(OC)nc1 [Example 118, (S)-N-[4-(4-Acetyl-piperazin-1-yl)-benzyl]-N-{1-[(2-methoxy-ethyl)-methyl-carbamoyl]-2-phenyl-ethyl}-3-(2-methoxy-pyrimidin-5-yl)-acrylamide]
81 nM | COCCN(C)C(=O)[C@H](Cc1ccccc1)N(Cc1ccc(-c2cncnc2)cc1)C(=O)C=Cc1ccn(C)n1 [Example 119, (S)-N-{1-[(2-Methoxy-ethyl)-methyl-carbamoyl]-2-phenyl-ethyl}-3-(1-methyl-1H-pyrazol-3-yl)-N-(4-pyrimidin-5-yl-benzyl)-acrylamide]
28 nM | COCCN(C)C(=O)[C@H](Cc1ccccc1)N(Cc1ccc(-c2cncnc2)cc1)C(=O)C=Cc1sc(C)nc1C [Example 121, (S)-3-(2,4-Dimethyl-thiazol-5-yl)-N-{1-[(2-methoxy-ethyl)-methyl-carbamoyl]-2-phenyl-ethyl}-N-(4-pyrimidin-5-yl-benzyl)-acrylamide]
110 nM | COCCN(C)C(=O)[C@H](Cc1ccccc1)N(Cc1ccc(-c2cncnc2)cc1)C(=O)C=Cc1c(C)noc1C [Example 124, (S)-3-(3,5-Dimethyl-isoxazol-4-yl)-N-{1-[(2-methoxy-ethyl)-methyl-carbamoyl]-2-phenyl-ethyl}-N-(4-pyrimidin-5-yl-benzyl)-acrylamide]
